Assay results published in ChEMBL document CHEMBL1201862, “PubChem BioAssay data set” (2004).
Calls of active or inactive are those of the source.

Assays:
[1] = target: Sphingosine 1-phosphate receptor 5 (Homo sapiens, UniProt Q9H228); assay: (§1) Late-stage fluorescence-based dose-response cell-based assay to identify agonists of the Sphingosine 1-Phosphate Receptor 4 (S1P4): Sphingosine 1-Phosphate Receptor 5 (S1P5) counterscreen assay. [Related pubchem assays (depositor defined):AID1509, AID1523, AID1563, AID1686, AID1701, AID1801, AID463107, AID463225, AID504400]; format: functional
[2] = target: Sphingosine 1-phosphate receptor 1 (Homo sapiens, UniProt P21453); assay: as §1, with “1 (S1P1)” for “5 (S1P5)”; format: functional
[3] = target: Sphingosine 1-phosphate receptor 2 (Homo sapiens, UniProt O95136); assay: as §1, with “2 (S1P2)” for “5 (S1P5)”; format: functional
[4] = target: Sphingosine 1-phosphate receptor 3 (Homo sapiens, UniProt Q99500); assay: as §1, with “3 (S1P3)” for “5 (S1P5)”; format: functional
[5] = target: T1, Runt-related transcription factor 1/Core-binding factor subunit beta (Homo sapiens, UniProt Q01196+Q13951); assay: inhibitors of RUNX1 Runt–CBFb-SMMHC binding, primary screen, biochemical, FRET, Cerulean-Runt, Venus-CBFb-SMMHC, uHTS (AID 1434); format: protein assay;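 further: partner is the CBFb-SMMHC leukemia fusion protein rather than wild-type CBFb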
[6] = target: T1, Runt-related transcription factor 1/Core-binding factor subunit beta; assay: inhibitors of RUNX1 Runt–CBFb-SMMHC binding, biochemical, TR-FRET (AID 1438); format: protein assay
[7] = target: T2, Polyadenylate-binding protein 1 (Homo sapiens, UniProt P11940); assay: PABP1 MLLE–PAM2 interaction inhibitors, dose response, miRNA deadenylation inhibitor project, biochemical, fluorescence polarization, Cy5-PAM2 peptide, secondary (AID 602260); format: functional; conditions: read-out: IC50_Mean
[8] = target: T2, Polyadenylate-binding protein 1; assay: PABP1 MLLE–PAM2 binding inhibitor potency, dose response, biochemical, fluorescence polarization, FITC-PAM2 peptide (AID 602259); format: functional; conditions: read-out: IC50_Mean
[9] = Luminescence Cell-Based Dose Response HTS to Identify Inhibitors of Luciferase Translation or Activity in H4-C Neuroglioblastoma Cells. [Related pubchem assays: 1813 (Primary HTS), 1827 (Project Summary)]; format: functional
[10] = Luminescence Cell-Based Dose Response HTS to Identify Activators of Luciferase Translation or Activity in H4-C Neuroglioblastoma Cells. [Related pubchem assays: 1829 (Project Summary), 1814 (Primary HTS)]; format: functional
[11] = inhibitors of firefly luciferase expression or activity, dose response, H4 neuroglioma cells, luminescence (AID 1990); format: functional, cell-based
[12] = Luminescence Cell-Based Dose Retest to Confirm Activators of 5'UTR Stem-Loop Driven Alpha-Synuclein mRNA Translation in H4 Neuroglioblastoma Cells. [Related pubchem assays (depositor defined):AID1813, AID1829]; format: functional
[13] = Luminescence Cell-Based Dose Response HTS to Identify Activators of 5'UTR Stem-Loop Driven Prion Protein mRNA Translation in H4-C Neuroglioblastoma Cells. [Related pubchem assays: 1829 (Project Summary), 1814 (Primary HTS)]; format: functional
[14] = Luminescence Cell-Based Dose HTS Response to Identify Inhibitors of 5'UTR Stem-Loop Driven Prion Protein mRNA Translation in H4-C Neuroglioblastoma Cells. [Related pubchem assays (depositor defined):AID1814, AID1827]; format: functional
[15] = Luminescence Cell-Based Dose Response HTS to Identify Inhibitors of 5'UTR Stem-Loop Driven Prion Protein mRNA Translation in H4 Neuroglioblastoma Cells. [Related pubchem assays: 1827 (Project Summary), 1813 (Primary HTS)]; format: functional
[16] = inhibitors of SNCA 5'UTR-driven reporter translation, confirmation, H4 neuroglioma cells, luminescence (AID 1988); format: functional, cell-based
[17] = Luminescence Cell-Based Dose Confirmation HTS to Identify Inhibitors of 5'UTR Stem-Loop Driven Alpha-Synuclein mRNA Translation in H4 Neuroglioblastoma Cells. [Related pubchem assays: 1827 (Project Summary), 1813 (Primary HTS)]; format: functional
[18] = cytotoxicity in HEK-293T cells, dose response, cytotoxicity control for TCR NF-kB inhibitor project, luminescence, T-cell screen hits (AID 489026); format: functional, cell-based;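 further: cells exposed to compound about 14 hours before the viability readout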
[19] = Shn3 3'UTR reporter inhibitors, dose response, cell-based, Clone20 osteoblasts, firefly luciferase, cherry-picked (AID 624132); format: functional;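 further: firefly luciferase luminescence from reporter carrying the Shn3 3'UTR in osteoblasts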
[20] = HepG2 cell cytotoxicity, dose response, cytotoxicity control for Shn3 inhibitor project, CellTiter-Glo, cherry-picked (AID 624134); format: functional, cell-based
[21] = control 3'UTR Renilla luciferase suppression, dose response, counter-screen for Shn3 inhibitor project, cell-based, Clone20-Shn3RL, cherry-picked (AID 624133); format: functional
[22] = target: T3, G-protein coupled receptor 35 (Homo sapiens, UniProt Q9HC97); assay: SAR analysis of Agonists of the GPR35 Receptor using an Image-Based Assay - Set 4. [Related pubchem assays (depositor defined):AID2013, AID2026]; format: functional
[23] = target: T4, Cannabinoid receptor 1 (Homo sapiens, UniProt P21554); assay: SAR analysis of agonists of the Cannabinoid Receptor 1 using an Image-Based Assay - Set 4. [Related pubchem assays (depositor defined):AID2013, AID2026]; format: functional
[24] = target: T3, G-protein coupled receptor 35; assay: SAR analysis of Antagonists of the GPR35 Receptor using an Image-Based Assay - Set 6. [Related pubchem assays (depositor defined):AID2013, AID2026]; format: functional
[25] = target: T4, Cannabinoid receptor 1; assay: SAR analysis of antagonists of the Cannabinoid Receptor 1 using an Image-Based Assay - Set 4. [Related pubchem assays (depositor defined):AID2013, AID2026]; format: functional
[26] = target: T5, G-protein coupled receptor 55 (Homo sapiens, UniProt Q9Y2T6); assay: SAR Analysis of Selective Antagonists of GPR55 using an Image-Based Assay - Set 4. [Related pubchem assays (depositor defined):AID2013, AID2026]; format: functional
[27] = target: T6, Cannabinoid receptor 2 (Homo sapiens, UniProt P34972); assay: SAR analysis of antagonists of the Cannabinoid Receptor 2 using an Image-Based Assay - Set 3. [Related pubchem assays (depositor defined):AID2013, AID2026]; format: functional
[28] = target: T6, Cannabinoid receptor 2; assay: SAR analysis of agonists of the Cannabinoid Receptor 2 using an Image-Based Assay - Set 3. [Related pubchem assays (depositor defined):AID2013, AID2026]; format: functional
[29] = target: T6, Cannabinoid receptor 2; assay: SAR analysis of antagonists of the Cannabinoid Receptor 2 using an Image-Based Assay - Set 2. [Related pubchem assays (depositor defined):AID1961, AID1965]; format: functional
[30] = target: T5, G-protein coupled receptor 55; assay: SAR analysis of selective Agonists of GPR55 using an Image-Based Assay - Set 2. [Related pubchem assays (depositor defined):AID1961, AID1965]; format: functional
[31] = target: T6, Cannabinoid receptor 2; assay: SAR analysis of agonists of the Cannabinoid Receptor 2 using an Image-Based Assay - Set 2. [Related pubchem assays (depositor defined):AID1961, AID1965]; format: functional
[32] = target: T3, G-protein coupled receptor 35; assay: SAR analysis of Agonists of the GPR35 Receptor using an Image-Based Assay - Set 3. [Related pubchem assays (depositor defined):AID1961, AID1965]; format: functional
[33] = target: T4, Cannabinoid receptor 1; assay: SAR analysis of antagonists of the Cannabinoid Receptor 1 using an Image-Based Assay - Set 3. [Related pubchem assays (depositor defined):AID1961, AID1965]; format: functional
[34] = target: T4, Cannabinoid receptor 1; assay: SAR analysis of agonists of the Cannabinoid Receptor 1 using an Image-Based Assay - Set 3. [Related pubchem assays (depositor defined):AID1961, AID1965]; format: functional
[35] = target: T3, G-protein coupled receptor 35; assay: SAR analysis of Antagonists of the GPR35 Receptor using an Image-Based Assay - Set 4. [Related pubchem assays (depositor defined):[…]]; format: functional

T4 sequence (P21554 whole entry): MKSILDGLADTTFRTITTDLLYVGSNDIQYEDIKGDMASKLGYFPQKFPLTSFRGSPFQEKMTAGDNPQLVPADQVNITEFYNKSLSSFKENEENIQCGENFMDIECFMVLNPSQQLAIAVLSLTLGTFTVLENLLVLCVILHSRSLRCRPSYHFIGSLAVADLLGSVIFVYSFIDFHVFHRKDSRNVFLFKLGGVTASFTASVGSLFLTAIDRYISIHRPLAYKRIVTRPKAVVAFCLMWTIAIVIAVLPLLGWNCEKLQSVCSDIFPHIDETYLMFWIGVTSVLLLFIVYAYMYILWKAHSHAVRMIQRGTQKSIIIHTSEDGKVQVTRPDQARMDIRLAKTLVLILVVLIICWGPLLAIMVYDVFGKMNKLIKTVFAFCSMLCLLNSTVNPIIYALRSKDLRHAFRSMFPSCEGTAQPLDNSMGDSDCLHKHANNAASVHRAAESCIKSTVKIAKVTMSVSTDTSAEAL
T6 sequence (P34972 whole entry): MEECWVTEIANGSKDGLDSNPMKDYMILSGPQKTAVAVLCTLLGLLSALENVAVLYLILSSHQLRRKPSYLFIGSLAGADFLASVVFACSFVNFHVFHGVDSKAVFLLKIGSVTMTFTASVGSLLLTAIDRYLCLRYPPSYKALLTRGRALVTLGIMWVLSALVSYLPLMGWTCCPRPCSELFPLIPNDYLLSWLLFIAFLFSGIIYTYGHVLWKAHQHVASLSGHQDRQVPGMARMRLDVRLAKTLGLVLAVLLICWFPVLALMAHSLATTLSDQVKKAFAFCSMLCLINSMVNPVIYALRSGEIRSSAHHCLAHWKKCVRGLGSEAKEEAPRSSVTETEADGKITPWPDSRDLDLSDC
T3 sequence (Q9HC97 whole entry): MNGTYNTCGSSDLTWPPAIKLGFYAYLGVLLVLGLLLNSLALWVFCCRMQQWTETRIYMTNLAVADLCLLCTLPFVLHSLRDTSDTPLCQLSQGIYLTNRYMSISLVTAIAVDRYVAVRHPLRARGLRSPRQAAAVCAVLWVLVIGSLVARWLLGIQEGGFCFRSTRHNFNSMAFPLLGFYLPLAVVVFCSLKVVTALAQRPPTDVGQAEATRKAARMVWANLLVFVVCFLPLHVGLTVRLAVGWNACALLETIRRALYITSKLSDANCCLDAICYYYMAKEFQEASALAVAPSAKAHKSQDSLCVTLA
T1 sequence (Q01196 whole entry, the tested form may be a part): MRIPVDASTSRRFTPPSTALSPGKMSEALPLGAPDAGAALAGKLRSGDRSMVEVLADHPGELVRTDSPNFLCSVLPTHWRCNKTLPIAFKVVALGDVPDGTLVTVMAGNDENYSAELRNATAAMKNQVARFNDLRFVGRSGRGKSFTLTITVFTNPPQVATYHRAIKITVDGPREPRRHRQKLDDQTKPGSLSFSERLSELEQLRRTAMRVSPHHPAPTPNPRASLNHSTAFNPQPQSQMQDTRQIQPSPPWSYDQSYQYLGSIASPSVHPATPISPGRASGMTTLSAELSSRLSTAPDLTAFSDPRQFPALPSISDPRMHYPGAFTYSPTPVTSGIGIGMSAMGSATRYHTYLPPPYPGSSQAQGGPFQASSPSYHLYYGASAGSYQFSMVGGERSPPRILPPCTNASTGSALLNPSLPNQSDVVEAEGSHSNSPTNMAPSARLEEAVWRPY
T1 sequence (Q13951 whole entry, the tested form may be a part): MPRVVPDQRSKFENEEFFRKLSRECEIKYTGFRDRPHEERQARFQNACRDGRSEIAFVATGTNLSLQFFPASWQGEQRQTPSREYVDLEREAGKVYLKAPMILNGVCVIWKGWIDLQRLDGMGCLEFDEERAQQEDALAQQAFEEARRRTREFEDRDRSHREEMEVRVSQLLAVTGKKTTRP
T5 sequence (Q9Y2T6 whole entry): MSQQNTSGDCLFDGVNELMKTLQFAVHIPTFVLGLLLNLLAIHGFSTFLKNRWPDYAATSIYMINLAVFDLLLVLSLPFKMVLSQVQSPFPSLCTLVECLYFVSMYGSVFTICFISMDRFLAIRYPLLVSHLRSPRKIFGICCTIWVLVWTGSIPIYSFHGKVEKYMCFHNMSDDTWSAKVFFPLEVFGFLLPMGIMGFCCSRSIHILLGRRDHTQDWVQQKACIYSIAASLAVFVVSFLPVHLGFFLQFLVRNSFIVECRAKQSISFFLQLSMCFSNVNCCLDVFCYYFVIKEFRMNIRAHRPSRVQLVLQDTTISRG
T2 sequence (P11940 whole entry): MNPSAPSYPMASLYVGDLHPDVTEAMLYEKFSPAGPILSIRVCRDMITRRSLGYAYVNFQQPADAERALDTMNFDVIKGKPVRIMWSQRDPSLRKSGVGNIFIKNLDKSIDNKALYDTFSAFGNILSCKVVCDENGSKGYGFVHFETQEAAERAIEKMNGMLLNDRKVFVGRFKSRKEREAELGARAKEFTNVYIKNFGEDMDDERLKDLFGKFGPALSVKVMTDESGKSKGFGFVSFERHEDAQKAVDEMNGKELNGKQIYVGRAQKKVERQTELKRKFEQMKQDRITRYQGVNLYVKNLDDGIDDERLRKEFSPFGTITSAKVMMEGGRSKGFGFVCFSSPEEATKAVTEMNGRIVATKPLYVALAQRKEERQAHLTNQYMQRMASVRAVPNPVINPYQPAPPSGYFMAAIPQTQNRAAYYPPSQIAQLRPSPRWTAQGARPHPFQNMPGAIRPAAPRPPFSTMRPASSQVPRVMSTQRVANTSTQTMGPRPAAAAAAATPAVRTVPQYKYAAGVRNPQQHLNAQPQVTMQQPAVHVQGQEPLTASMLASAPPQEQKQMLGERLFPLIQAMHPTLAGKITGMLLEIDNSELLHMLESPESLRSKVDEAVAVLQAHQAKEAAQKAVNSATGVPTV
Sphingosine 1-phosphate receptor 5, sequence (Q9H228 whole entry): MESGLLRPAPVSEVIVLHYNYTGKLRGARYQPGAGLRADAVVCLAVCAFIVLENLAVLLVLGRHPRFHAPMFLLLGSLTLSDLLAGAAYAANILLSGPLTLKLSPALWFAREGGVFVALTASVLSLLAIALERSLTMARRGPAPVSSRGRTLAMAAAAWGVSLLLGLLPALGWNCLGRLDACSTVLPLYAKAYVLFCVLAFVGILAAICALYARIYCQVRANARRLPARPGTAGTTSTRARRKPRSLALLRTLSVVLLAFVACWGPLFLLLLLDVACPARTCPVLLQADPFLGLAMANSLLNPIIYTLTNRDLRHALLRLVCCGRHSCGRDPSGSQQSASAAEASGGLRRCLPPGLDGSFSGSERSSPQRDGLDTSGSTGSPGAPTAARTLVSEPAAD
Sphingosine 1-phosphate receptor 3, sequence (Q99500 whole entry, the tested form may be a part): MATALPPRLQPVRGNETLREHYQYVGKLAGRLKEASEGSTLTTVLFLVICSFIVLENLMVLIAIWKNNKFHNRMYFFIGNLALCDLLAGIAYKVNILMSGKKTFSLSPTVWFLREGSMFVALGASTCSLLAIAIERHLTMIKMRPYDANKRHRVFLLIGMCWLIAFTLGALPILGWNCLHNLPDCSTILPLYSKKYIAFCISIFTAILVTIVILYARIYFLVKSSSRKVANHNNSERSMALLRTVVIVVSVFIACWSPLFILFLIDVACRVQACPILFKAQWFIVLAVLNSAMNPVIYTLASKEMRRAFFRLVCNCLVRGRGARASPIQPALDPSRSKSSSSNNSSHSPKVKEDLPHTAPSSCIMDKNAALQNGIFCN
Sphingosine 1-phosphate receptor 2, sequence (O95136 whole entry): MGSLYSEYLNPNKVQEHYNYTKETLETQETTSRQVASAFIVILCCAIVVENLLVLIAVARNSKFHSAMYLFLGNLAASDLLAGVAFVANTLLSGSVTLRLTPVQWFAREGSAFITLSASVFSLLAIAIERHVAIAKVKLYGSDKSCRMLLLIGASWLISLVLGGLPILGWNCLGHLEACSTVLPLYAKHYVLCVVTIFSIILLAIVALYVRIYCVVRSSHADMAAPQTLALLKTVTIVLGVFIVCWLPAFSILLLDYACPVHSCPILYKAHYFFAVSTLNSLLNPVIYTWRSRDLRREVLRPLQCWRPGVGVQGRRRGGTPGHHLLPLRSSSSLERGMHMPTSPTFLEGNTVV
Sphingosine 1-phosphate receptor 1, sequence (P21453 whole entry): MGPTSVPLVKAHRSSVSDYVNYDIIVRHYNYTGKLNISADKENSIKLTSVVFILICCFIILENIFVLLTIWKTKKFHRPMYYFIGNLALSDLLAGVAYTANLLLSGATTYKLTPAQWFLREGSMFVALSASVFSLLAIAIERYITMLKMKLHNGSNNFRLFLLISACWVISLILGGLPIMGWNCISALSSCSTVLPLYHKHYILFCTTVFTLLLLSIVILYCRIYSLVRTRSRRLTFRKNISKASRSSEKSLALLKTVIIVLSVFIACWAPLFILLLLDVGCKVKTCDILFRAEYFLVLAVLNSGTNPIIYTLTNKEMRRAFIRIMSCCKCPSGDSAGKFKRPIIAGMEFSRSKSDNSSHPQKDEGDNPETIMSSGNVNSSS

Cc1ccc(OCCOc2c(Cl)cc(Cl)cc2Cl)c([N+](=O)[O-])n1
EC50 [1]: > 50 µM (inactive) | EC50 [2]: > 50 µM (inactive) | EC50 [3]: > 50 µM (inactive) | EC50 [4]: > 50 µM (inactive)

N#Cc1cc2c(=O)n3ccccc3nc2n(Cc2ccco2)/c1=N/C(=O)c1ccco1
IC50 [5]: 1.67 µM (active) | IC50 [6]: 56.1 µM (inactive) | IC50 [7]: > 66 µM (inactive) | IC50 [8]: > 66 µM (inactive)

CCCOc1ccccc1C1CC(=O)Nc2cc3c(cc21)OCO3 (stereo not given)
EC50 [9]: 2.97 µM (active) | EC50 [10]: 2.97 µM (inconclusive) | EC50 [11]: 3.65 µM (inconclusive) | EC50 [12]: 35.8 µM (inconclusive) | EC50 [13]: 2.4 µM (inconclusive) | EC50 [14]: 2.4 µM (active) | EC50 [15]: > 120 µM (not active) | EC50 [16]: 0.158 µM (active) | EC50 [17]: 35.8 µM (active) | IC50 [18]: 60.1 µM (inactive) | AC50 [19]: 5.72 µM (active) | AC50 [20]: > 70 µM (inactive) | AC50 [21]: 15.3 µM (active)

N=c1c(C(=O)NC2CCCCC2)cc2c(=O)n3ccccc3nc2n1C1CCCC1
EC50 [22]: > 32 µM (inactive) | EC50 [23]: > 32 µM (inactive) | IC50 [24]: > 32 µM (inactive) | IC50 [25]: > 32 µM (inactive) | IC50 [26]: 29 µM (inactive) | IC50 [27]: > 32 µM (inactive) | EC50 [28]: > 32 µM (inactive)

O=C(Nc1cccc(S(=O)(=O)N2CCOCC2)c1)c1ccc(N2CCCC2=O)cc1
IC50 [29]: > 32 µM (inactive) | EC50 [30]: 1.37 µM (active) | EC50 [31]: > 32 µM (inactive) | EC50 [32]: > 32 µM (inactive) | IC50 [33]: > 32 µM (inactive) | EC50 [34]: > 32 µM (inactive) | IC50 [35]: > 32 µM (inactive)
